Columns and labels:
Assay type in all cases: biochemical
[1] = biological target: AURKA (Homo sapiens (Human), UniProt O14965); assay: KinaseProfiler off-target kinase profiling; settings: 10 μM, ATP near Km
Outline: (§1)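 Single-concentration screen: 10 μM compound, ATP set close to the Km of each individual kinase. Output is percent of control averaged over duplicate wells.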

[2] = biological target: AKT1 (Homo sapiens (Human), UniProt P31749); assay: KinaseProfiler off-target kinase profiling; settings: 10 μM, ATP near Km
Outline: as §1

[3] = biological target: PKCdelta (Homo sapiens (Human), UniProt Q05655); assay: KinaseProfiler off-target kinase profiling; settings: 10 μM, ATP near Km
Outline: as §1

[4] = biological target: PDK1 (Homo sapiens (Human), UniProt O15530); assay: KinaseProfiler off-target kinase profiling; settings: 10 μM, ATP near Km
Outline: as §1

[5] = biological target: Mer (Homo sapiens (Human), UniProt Q12866); assay: KinaseProfiler off-target kinase profiling; settings: 10 μM, ATP near Km
Outline: as §1

[6] = biological target: FAK (Homo sapiens (Human), UniProt Q05397); assay: KinaseProfiler off-target kinase profiling; settings: 10 μM, ATP near Km
Outline: as §1

[7] = biological target: PKCeta (Homo sapiens (Human), UniProt P24723); assay: KinaseProfiler off-target kinase profiling; settings: 10 μM, ATP near Km
PKCeta, sequence (P24723 whole entry): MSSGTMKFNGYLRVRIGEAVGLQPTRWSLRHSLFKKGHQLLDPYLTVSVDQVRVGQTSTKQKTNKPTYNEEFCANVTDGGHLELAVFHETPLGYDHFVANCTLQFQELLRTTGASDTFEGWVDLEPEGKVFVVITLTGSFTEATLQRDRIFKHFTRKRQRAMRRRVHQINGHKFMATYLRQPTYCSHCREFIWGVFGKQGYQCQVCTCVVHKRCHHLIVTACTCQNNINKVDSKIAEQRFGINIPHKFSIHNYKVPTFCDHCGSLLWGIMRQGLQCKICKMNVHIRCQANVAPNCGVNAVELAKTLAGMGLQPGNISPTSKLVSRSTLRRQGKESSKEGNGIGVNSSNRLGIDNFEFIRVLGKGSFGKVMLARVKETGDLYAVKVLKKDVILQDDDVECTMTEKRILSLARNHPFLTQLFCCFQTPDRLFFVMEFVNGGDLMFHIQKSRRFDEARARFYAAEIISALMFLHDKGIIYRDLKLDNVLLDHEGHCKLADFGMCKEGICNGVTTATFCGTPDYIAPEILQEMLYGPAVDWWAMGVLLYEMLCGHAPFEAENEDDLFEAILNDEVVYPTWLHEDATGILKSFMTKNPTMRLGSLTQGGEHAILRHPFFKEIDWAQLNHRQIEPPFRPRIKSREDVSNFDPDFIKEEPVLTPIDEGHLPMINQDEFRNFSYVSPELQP
Outline: as §1

[8] = biological target: TAO1 (Homo sapiens (Human), UniProt Q7L7X3); assay: KinaseProfiler off-target kinase profiling; settings: 10 μM, ATP near Km
Outline: as §1

[9] = biological target: DAPK3 (Homo sapiens (Human), UniProt O43293); assay: KinaseProfiler off-target kinase profiling; settings: 10 μM, ATP near Km
Outline: as §1

[10] = biological target: FAK2 (Homo sapiens (Human), UniProt Q14289); assay: KinaseProfiler off-target kinase profiling; settings: 10 μM, ATP near Km
FAK2, sequence (Q14289 whole entry): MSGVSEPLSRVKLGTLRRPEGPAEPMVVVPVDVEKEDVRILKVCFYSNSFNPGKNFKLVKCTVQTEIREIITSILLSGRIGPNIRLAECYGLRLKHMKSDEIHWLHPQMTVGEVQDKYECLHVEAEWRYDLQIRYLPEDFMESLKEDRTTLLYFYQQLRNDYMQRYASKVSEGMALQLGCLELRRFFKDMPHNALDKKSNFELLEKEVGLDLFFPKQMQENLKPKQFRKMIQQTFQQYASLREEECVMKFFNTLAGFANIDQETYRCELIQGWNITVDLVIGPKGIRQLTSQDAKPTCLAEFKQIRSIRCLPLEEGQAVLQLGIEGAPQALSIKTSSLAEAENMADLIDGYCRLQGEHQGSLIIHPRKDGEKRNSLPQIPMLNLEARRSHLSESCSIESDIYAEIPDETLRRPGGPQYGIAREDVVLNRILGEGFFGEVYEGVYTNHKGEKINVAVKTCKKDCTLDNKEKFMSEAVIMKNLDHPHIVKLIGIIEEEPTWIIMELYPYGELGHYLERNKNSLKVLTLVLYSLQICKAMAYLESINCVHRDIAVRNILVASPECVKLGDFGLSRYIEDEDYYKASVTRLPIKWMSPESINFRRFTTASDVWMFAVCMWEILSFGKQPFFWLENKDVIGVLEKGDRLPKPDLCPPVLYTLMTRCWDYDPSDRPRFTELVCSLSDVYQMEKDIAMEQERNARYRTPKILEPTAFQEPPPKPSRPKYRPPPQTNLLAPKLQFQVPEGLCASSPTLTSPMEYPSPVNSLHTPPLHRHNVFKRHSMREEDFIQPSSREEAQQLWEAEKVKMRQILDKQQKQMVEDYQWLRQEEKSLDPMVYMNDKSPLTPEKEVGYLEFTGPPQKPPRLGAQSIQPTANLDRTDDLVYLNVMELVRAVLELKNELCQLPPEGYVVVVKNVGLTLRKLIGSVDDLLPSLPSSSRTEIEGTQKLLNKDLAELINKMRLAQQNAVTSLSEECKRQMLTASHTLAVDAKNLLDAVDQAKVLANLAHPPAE
Outline: as §1

[11] = biological target: Fer (Homo sapiens (Human), UniProt P16591); assay: KinaseProfiler off-target kinase profiling; settings: 10 μM, ATP near Km
Outline: as §1

[12] = biological target: PKAC-alpha (Homo sapiens (Human), UniProt P17612); assay: KinaseProfiler off-target kinase profiling; settings: 10 μM, ATP near Km
Outline: as §1

[13] = biological target: IRAK1 (Homo sapiens (Human), UniProt P51617); assay: KinaseProfiler off-target kinase profiling; settings: 10 μM, ATP near Km
Outline: as §1

[14] = biological target: MAP3K5 (Homo sapiens (Human), UniProt Q99683); assay: KinaseProfiler off-target kinase profiling; settings: 10 μM, ATP near Km
Outline: as §1

[15] = biological target: CAMK2b (Homo sapiens (Human), UniProt Q13554); assay: KinaseProfiler off-target kinase profiling; settings: 10 μM, ATP near Km
Outline: as §1

[16] = biological target: DMPK (Homo sapiens (Human), UniProt Q09013); assay: KinaseProfiler off-target kinase profiling; settings: 10 μM, ATP near Km
Outline: as §1

[17] = biological target: FGFR2 (Homo sapiens (Human), UniProt P21802); assay: KinaseProfiler off-target kinase profiling; settings: 10 μM, ATP near Km
Outline: as §1

[18] = biological target: PKD1 (Homo sapiens (Human), UniProt Q15139); assay: KinaseProfiler off-target kinase profiling; settings: 10 μM, ATP near Km
Outline: as §1

[19] = biological target: Plk3 (Homo sapiens (Human), UniProt Q9H4B4); assay: KinaseProfiler off-target kinase profiling; settings: 10 μM, ATP near Km
Outline: as §1

[20] = biological target: BTK (Homo sapiens (Human), UniProt Q06187); assay: KinaseProfiler off-target kinase profiling; settings: 10 μM, ATP near Km
Outline: as §1

[21] = biological target: Bmx (Homo sapiens (Human), UniProt P51813); assay: KinaseProfiler off-target kinase profiling; settings: 10 μM, ATP near Km
Outline: as §1

[22] = biological target: MSSK1 (Homo sapiens (Human), UniProt Q9UPE1); assay: KinaseProfiler off-target kinase profiling; settings: 10 μM, ATP near Km
Outline: as §1

[23] = biological target: DAPK2 (Homo sapiens (Human), UniProt Q9UIK4); assay: KinaseProfiler off-target kinase profiling; settings: 10 μM, ATP near Km
Outline: as §1

[24] = biological target: NEK3 (Homo sapiens (Human), UniProt P51956); assay: KinaseProfiler off-target kinase profiling; settings: 10 μM, ATP near Km
Outline: as §1

[25] = biological target: MKK6 (Homo sapiens (Human), UniProt P52564); assay: KinaseProfiler off-target kinase profiling; settings: 10 μM, ATP near Km
Outline: as §1

[26] = biological target: PAK2 (Homo sapiens (Human), UniProt Q13177); assay: KinaseProfiler off-target kinase profiling; settings: 10 μM, ATP near Km
PAK2, sequence (Q13177 whole entry): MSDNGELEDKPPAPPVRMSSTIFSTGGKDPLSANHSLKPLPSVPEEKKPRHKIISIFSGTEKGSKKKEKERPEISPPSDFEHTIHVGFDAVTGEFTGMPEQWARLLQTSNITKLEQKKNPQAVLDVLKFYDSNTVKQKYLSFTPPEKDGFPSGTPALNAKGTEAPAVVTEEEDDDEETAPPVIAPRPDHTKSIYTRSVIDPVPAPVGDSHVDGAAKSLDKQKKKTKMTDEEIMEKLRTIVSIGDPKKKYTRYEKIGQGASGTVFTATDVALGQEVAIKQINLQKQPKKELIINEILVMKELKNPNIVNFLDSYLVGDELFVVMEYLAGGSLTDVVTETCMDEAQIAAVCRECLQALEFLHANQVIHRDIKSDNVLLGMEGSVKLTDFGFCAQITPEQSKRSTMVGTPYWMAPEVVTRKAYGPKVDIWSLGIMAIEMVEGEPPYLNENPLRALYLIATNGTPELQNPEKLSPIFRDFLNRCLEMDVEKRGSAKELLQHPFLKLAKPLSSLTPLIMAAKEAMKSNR
Outline: as §1

[27] = biological target: CDK3/cyclinE (Homo sapiens (Human), UniProt Q00526); assay: KinaseProfiler off-target kinase profiling; settings: 10 μM, ATP near Km
Outline: as §1

[28] = biological target: MST1 (Homo sapiens (Human), UniProt Q13043); assay: KinaseProfiler off-target kinase profiling; settings: 10 μM, ATP near Km
Outline: as §1

[29] = biological target: ALK4 (Homo sapiens (Human), UniProt P36896); assay: KinaseProfiler off-target kinase profiling; settings: 10 μM, ATP near Km
Outline: as §1

[30] = biological target: IKKbeta (Homo sapiens (Human), UniProt O14920); assay: KinaseProfiler off-target kinase profiling; settings: 10 μM, ATP near Km
Outline: as §1

[31] = biological target: JAK3 (Homo sapiens (Human), UniProt P52333); assay: KinaseProfiler off-target kinase profiling; settings: 10 μM, ATP near Km
JAK3, sequence (P52333 whole entry): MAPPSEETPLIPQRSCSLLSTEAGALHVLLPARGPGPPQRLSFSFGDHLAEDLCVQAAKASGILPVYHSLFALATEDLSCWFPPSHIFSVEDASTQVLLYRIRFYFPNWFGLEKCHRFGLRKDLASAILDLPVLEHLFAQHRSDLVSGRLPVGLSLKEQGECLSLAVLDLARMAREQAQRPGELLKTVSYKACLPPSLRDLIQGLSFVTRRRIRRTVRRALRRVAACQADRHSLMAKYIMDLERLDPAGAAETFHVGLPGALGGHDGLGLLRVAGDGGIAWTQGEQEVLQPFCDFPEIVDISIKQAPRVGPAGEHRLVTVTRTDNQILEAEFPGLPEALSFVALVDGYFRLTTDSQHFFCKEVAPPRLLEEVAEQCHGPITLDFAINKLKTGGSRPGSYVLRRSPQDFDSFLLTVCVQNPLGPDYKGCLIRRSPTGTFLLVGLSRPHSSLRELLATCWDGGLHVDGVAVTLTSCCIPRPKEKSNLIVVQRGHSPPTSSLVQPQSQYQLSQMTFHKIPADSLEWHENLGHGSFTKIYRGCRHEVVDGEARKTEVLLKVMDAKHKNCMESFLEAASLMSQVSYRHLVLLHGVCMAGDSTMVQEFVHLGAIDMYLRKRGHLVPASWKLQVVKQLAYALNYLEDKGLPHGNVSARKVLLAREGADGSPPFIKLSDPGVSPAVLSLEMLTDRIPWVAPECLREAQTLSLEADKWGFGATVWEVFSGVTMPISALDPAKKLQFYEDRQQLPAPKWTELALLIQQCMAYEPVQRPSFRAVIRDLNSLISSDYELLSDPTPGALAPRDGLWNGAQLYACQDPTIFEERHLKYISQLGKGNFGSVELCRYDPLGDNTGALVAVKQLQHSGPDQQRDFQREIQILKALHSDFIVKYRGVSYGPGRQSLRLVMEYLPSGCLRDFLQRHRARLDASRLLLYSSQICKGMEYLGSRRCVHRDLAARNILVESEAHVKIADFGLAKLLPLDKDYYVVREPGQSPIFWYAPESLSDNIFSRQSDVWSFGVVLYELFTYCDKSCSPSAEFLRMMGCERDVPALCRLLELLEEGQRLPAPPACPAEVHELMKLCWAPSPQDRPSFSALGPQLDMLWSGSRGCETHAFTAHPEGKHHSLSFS
Outline: as §1

[32] = biological target: CDK6/cyclinD3 (Homo sapiens (Human), UniProt Q00534); assay: KinaseProfiler off-target kinase profiling; settings: 10 μM, ATP near Km
Outline: as §1

[33] = biological target: CDK5/p25 (Homo sapiens (Human), UniProt Q00535); assay: KinaseProfiler off-target kinase profiling; settings: 10 μM, ATP near Km
CDK5/p25, sequence (Q00535 whole entry): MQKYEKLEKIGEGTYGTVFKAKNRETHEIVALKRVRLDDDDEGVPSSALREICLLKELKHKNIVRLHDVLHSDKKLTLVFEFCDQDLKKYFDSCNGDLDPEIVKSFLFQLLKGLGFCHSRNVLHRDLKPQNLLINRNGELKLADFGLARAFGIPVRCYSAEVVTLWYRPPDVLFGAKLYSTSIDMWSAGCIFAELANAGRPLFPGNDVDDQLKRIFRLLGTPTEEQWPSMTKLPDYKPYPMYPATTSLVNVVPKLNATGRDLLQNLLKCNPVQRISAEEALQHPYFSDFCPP
CDK5/p25, sequence (Q15078 99-307 partner): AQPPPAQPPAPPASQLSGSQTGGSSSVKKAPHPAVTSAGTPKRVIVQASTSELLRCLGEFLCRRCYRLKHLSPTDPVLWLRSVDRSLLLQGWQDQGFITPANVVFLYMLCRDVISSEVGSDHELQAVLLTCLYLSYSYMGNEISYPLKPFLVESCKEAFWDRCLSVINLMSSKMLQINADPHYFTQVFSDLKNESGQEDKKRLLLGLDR
Outline: as §1

[34] = biological target: TAO2 (Homo sapiens (Human), UniProt Q9UL54); assay: KinaseProfiler off-target kinase profiling; settings: 10 μM, ATP near Km
TAO2, sequence (Q9UL54 whole entry): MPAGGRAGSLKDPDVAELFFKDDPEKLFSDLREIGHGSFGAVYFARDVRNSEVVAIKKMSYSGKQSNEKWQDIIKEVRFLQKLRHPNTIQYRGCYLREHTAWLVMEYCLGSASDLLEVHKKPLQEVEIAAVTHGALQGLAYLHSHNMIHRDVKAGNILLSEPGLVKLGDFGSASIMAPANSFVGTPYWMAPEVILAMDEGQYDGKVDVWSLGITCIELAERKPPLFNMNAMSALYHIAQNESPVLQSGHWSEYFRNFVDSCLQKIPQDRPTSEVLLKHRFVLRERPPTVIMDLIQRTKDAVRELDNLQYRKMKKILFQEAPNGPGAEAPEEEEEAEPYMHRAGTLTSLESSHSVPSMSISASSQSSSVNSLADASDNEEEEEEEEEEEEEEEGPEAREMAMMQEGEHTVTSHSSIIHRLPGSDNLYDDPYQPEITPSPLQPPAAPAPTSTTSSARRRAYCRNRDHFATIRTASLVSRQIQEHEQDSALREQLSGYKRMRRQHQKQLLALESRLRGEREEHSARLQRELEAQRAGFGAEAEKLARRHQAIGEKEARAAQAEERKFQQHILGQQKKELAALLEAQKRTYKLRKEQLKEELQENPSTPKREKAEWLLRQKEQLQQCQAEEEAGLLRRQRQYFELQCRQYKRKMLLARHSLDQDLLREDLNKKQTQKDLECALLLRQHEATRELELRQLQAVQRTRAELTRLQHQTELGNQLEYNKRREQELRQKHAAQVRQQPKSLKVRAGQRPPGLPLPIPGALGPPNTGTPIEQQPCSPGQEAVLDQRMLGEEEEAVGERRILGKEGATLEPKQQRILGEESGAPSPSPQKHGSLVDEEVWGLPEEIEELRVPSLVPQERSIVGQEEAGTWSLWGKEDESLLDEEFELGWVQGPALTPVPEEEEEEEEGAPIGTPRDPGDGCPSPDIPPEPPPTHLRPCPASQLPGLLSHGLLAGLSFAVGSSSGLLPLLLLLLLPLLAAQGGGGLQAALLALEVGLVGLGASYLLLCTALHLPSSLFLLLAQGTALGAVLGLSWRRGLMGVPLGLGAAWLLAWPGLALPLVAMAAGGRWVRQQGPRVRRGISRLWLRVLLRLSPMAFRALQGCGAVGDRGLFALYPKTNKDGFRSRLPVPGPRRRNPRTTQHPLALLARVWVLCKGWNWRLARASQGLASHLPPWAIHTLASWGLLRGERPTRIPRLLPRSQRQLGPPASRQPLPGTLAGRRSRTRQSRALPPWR
Outline: as §1

[35] = biological target: CK1gamma2 (Homo sapiens (Human), UniProt P78368); assay: KinaseProfiler off-target kinase profiling; settings: 10 μM, ATP near Km
Outline: as §1

[36] = biological target: DRAK1 (Homo sapiens (Human), UniProt Q9UEE5); assay: KinaseProfiler off-target kinase profiling; settings: 10 μM, ATP near Km
Outline: as §1

[37] = biological target: MST2 (Homo sapiens (Human), UniProt Q13188); assay: KinaseProfiler off-target kinase profiling; settings: 10 μM, ATP near Km
Outline: as §1

[38] = tested on: off-target kinases in the full kinase panel; assay: KinaseProfiler full kinase panel, overall result; settings: for selectivity for inhibiting TrkA versus other kinases in the panel: 10 μM, panel of about 230 kinases; for activity against off-target kinases: concentration of 10 μM
Procedure: Two representative compounds (Example 2, 14) of the invention were tested for off-target kinase activity at a concentration of 10 μM by Millipore, Inc. in their KinaseProfiler™ service against all the kinases available in their full kinase panel. These compounds were run in duplicate at a concentration of ATP near the Km for each individual kinase according to Millipore's specifications. The results are shown in Table B. Data are reported as percent of control (POC) and are the average of the two replicates.
Such a drug profile would represent a safer approach to treating pain, inflammation, cancer and certain skin diseases than has been previously reported.

Avg POC [1] [POC] | Avg POC [2] [POC] | Avg POC [3] [POC] | Avg POC [4] [POC] | Avg POC [5] [POC] | Avg POC [6] [POC] | Avg POC [7] [POC] | Avg POC [8] [POC] | Avg POC [9] [POC] | Avg POC [10] [POC] | Avg POC [11] [POC] | Avg POC [12] [POC] | Avg POC [13] [POC] | Avg POC [14] [POC] | Avg POC [15] [POC] | Avg POC [16] [POC] | Avg POC [17] [POC] | Avg POC [18] [POC] | Avg POC [19] [POC] | Avg POC [20] [POC] | Structure (SMILES) | further results
116 | 109.5 | 102.5 | 94.5 | 90.5 | 111.5 | 108.5 | 102.5 | 107 | 99.5 | 105 | 94.5 | 112.5 | 97.5 | 90.5 | 98.5 | 91.5 | 96 | 101 | 109 | COCCN1C[C@@H](NC(=O)Nc2c(C)c(-c3ccnc(C)c3)nn2-c2ccccc2)[C@H](c2ccc(F)c(F)c2)C1 [Example 2, 1-((3S,4R)-4-(3,4-difluorophenyl)-1-(2-methoxyethyl)pyrrolidin-3-yl)-3-(4-methyl-3-(2-methylpyridin-4-yl)-1-phenyl-1H-pyrazol-5-yl)urea] | Avg POC [21]: 115.5 POC; Avg POC [22]: 118 POC; Avg POC [23]: 109 POC; Avg POC [24]: 97 POC; Avg POC [25]: 106.5 POC; Avg POC [26]: 95.5 POC; Avg POC [27]: 98 POC; Avg POC [28]: 94 POC; Avg POC [29]: 112.5 POC; Avg POC [30]: 87 POC; Avg POC [31]: 103.5 POC; Avg POC [32]: 96 POC; Avg POC [33]: 104 POC; Avg POC [34]: 97 POC; Avg POC [35]: 73.5 POC; Avg POC [36]: 86.5 POC; Avg POC [37]: 99.5 POC; selectivity for inhibiting TrkA versus other kinases in the panel [38]: remarkable and unexpected selectivity; activity against off-target kinases [38]: largely inactive
106 | 98.5 | 99.5 | 101.5 | 78 | 98.5 | 100 | 96.5 | 105.5 | 107 | 100.5 | 109 | 108.5 | 104 | 93 | 105 | 103 | 97 | 93.5 | 97.5 | COCCN1C[C@@H](NC(=O)Nc2c(C)c(-c3cnc(C)nc3)nn2-c2ccccc2)[C@H](c2cc(F)cc(F)c2)C1 [Example 14, 1-((3S,4R)-4-(3,5-difluorophenyl)-1-(2-methoxyethyl)pyrrolidin-3-yl)-3-(4-methyl-3-(2-methylpyrimidin-5-yl)-1-phenyl-1H-pyrazol-5-yl)urea] | Avg POC [21]: 105.5 POC; Avg POC [22]: 109 POC; Avg POC [23]: 107 POC; Avg POC [24]: 101 POC; Avg POC [25]: 99.5 POC; Avg POC [26]: 92.5 POC; Avg POC [27]: 100.5 POC; Avg POC [28]: 97.5 POC; Avg POC [29]: 115 POC; Avg POC [30]: 99 POC; Avg POC [31]: 101 POC; Avg POC [32]: 99.5 POC; Avg POC [33]: 99 POC; Avg POC [34]: 102.5 POC; Avg POC [35]: 53 POC; Avg POC [36]: 101.5 POC; Avg POC [37]: 101 POC; selectivity for inhibiting TrkA versus other kinases in the panel [38]: remarkable and unexpected selectivity; activity against off-target kinases [38]: largely inactive

Source: patent US9896435B2, “N-pyrrolidinyl,N′-pyrazolyl-urea, thiourea, guanidine and cyanoguanidine compounds as TrkA kinase inhibitors” (Array BioPharma Inc., priority 2012, dated 2018)
